Test results published in ChEMBL document CHEMBL1201862, “PubChem BioAssay data set” (2004).
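Cells were grown in 96-well plates and exposed to each compound for 48 hours at five concentrations; endpoints were interpolated linearly between bracketing concentrations, or set to the highest concentration if not reached. GI50 = concentration required for 50% inhibition of growth.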 Active and inactive are the calls of the source. No stated cut-off is given here; in the data, active = GI50 up to about 1.1 µM and inactive = higher.

What was measured:
Test in all cases: NCI-60 cell line screen, 48 h
ACHN = tested on: ACHN
SNB-75 = tested on: SNB-75
SN12C = tested on: SN12C
HCT-116 = tested on: HCT-116
A498 = tested on: A498
CAKI-1 = tested on: CAKI-1
SNB-19 = tested on: SNB-19
BT-549 = tested on: BT-549
CCRF-CEM = tested on: CCRF-CEM
HCT-15 = tested on: HCT-15
M14 = tested on: M14
U-251 = tested on: U-251
HOP-92 = tested on: HOP-92
SK-MEL-28 = tested on: SK-MEL-28
EKVX = tested on: EKVX
DU-145 = tested on: DU-145
UACC-257 = tested on: UACC-257
OVCAR-8 = tested on: OVCAR-8
MDA-MB-231 = tested on: MDA-MB-231
SK-OV-3 = tested on: SK-OV-3
SF-295 = tested on: SF-295
MDA-N = tested on: MDA-N
RPMI-8226 = tested on: RPMI-8226
T47D = tested on: T47D
IGROV-1 = tested on: IGROV-1
Hs-578T = tested on: Hs-578T
SK-MEL-5 = tested on: SK-MEL-5
KM12 = tested on: KM12
A549 = tested on: A549
MCF7 = tested on: MCF7
HCC 2998 = tested on: HCC 2998
NCI/ADR-RES = tested on: NCI/ADR-RES
Malme-3M = tested on: Malme-3M
MDA-MB-435 = tested on: MDA-MB-435
HL-60 = tested on: HL-60
786-0 = tested on: 786-0
HT-29 = tested on: HT-29
MOLT-4 = tested on: MOLT-4
OVCAR-4 = tested on: OVCAR-4
SW-620 = tested on: SW-620
SF-268 = tested on: SF-268
PC-3 = tested on: PC-3
SR = tested on: SR
HOP-62 = tested on: HOP-62
TK-10 = tested on: TK-10
COLO 205 = tested on: COLO 205
SF-539 = tested on: SF-539
UACC-62 = tested on: UACC-62
K562 = tested on: K562
OVCAR-3 = tested on: OVCAR-3

Structure (SMILES): CCOC(=O)C1c2[nH]c3ccccc3c2CCN1C(=O)c1ccco1 (stereo not given)
- GI50 (ACHN): > 10 µM (inactive)
- GI50 (SNB-75): > 10 µM (inactive)
- GI50 (SN12C): > 10 µM (inactive)
- GI50 (HCT-116): > 10 µM (inactive)
- GI50 (A498): 9.73 µM (inactive)
- GI50 (CAKI-1): > 10 µM (inactive)
- GI50 (SNB-19): > 10 µM (inactive)
- GI50 (BT-549): > 10 µM (inactive)
- GI50 (CCRF-CEM): > 10 µM (inactive)
- GI50 (HCT-15): > 10 µM
- GI50 (M14): > 10 µM (inactive)
- GI50 (U-251): > 10 µM (inactive)
- GI50 (HOP-92): > 10 µM (inactive)
- GI50 (SK-MEL-28): > 10 µM (inactive)
- GI50 (EKVX): > 10 µM (inactive)
- GI50 (DU-145): > 10 µM (inactive)
- GI50 (UACC-257): > 10 µM (inactive)
- GI50 (OVCAR-8): > 10 µM (inactive)
- GI50 (MDA-MB-231): > 10 µM (inactive)
- GI50 (SK-OV-3): > 10 µM (inactive)
- GI50 (SF-295): > 10 µM (inactive)
- GI50 (MDA-N): > 10 µM (inactive)
- GI50 (RPMI-8226): > 10 µM (inactive)
- GI50 (T47D): > 10 µM (inactive)
- GI50 (IGROV-1): > 10 µM (inactive)
- GI50 (Hs-578T): > 10 µM (inactive)
- GI50 (SK-MEL-5): > 10 µM (inactive)
- GI50 (KM12): > 10 µM (inactive)
- GI50 (A549): > 10 µM (inactive)
- GI50 (MCF7): > 10 µM (inactive)
- GI50 (HCC 2998): > 10 µM (inactive)
- GI50 (NCI/ADR-RES): > 10 µM (inactive)
- GI50 (Malme-3M): > 10 µM (inactive)
- GI50 (MDA-MB-435): > 10 µM (inactive)
- GI50 (HL-60): > 10 µM (inactive)
- GI50 (786-0): > 10 µM (inactive)
- GI50 (HT-29): > 10 µM (inactive)
- GI50 (MOLT-4): > 10 µM (inactive)
- GI50 (OVCAR-4): > 10 µM (inactive)
- GI50 (SW-620): > 10 µM (inactive)
- GI50 (SF-268): > 10 µM (inactive)
- GI50 (PC-3): > 10 µM (inactive)
- GI50 (SR): > 10 µM (inactive)
- GI50 (HOP-62): > 10 µM (inactive)
- GI50 (TK-10): > 10 µM (inactive)
- GI50 (COLO 205): > 10 µM (inactive)
- GI50 (SF-539): > 10 µM (inactive)
- GI50 (UACC-62): > 10 µM (inactive)
- GI50 (K562): > 10 µM (inactive)
- GI50 (OVCAR-3): > 10 µM (inactive)
